# According to ChEMBL document CHEMBL1201862, “PubChem BioAssay data set” (2004):
#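 96-well plates; 48 h exposure; 5 concentrations. Endpoints by linear interpolation between flanking doses. Not reached: highest tested concentration assigned. GI50: concentration for 50% inhibition of growth.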 Active and inactive are the calls of the source. Rule as the data show it: active = GI50 up to about 1.1 µM and inactive = higher.
# Assays:
# Experiment in all cases: NCI tumour cell line growth inhibition, 48 h
# [1] = test system: NCI-H460
# [2] = test system: HL-60
# [3] = test system: NCI-H226
# [4] = test system: OVCAR-3
# [5] = test system: SK-MEL-2
# [6] = test system: MCF7
# [7] = test system: NCI-H23
# [8] = test system: HCT-116
# [9] = test system: HT-29
# [10] = test system: SNB-19
# [11] = test system: HCC 2998
# [12] = test system: SK-MEL-5
# [13] = test system: SK-MEL-28
# [14] = test system: SNB-75
# [15] = test system: HOP-62
# [16] = test system: SN12C
# [17] = test system: KM-20L2
# [18] = test system: A498
# [19] = test system: NCI-H522
# [20] = test system: SNB-78
# [21] = test system: K562
# [22] = test system: DMS-273
# [23] = test system: DLD-1
# [24] = test system: LOX IMVI
# [25] = test system: SF-539
# [26] = test system: HOP-92
# [27] = test system: SW-620
# [28] = test system: UACC-257
# [29] = test system: U-251
# [30] = test system: COLO 205
# [31] = test system: HOP-18
# [32] = test system: MOLT-4
# [33] = test system: SK-OV-3
# [34] = test system: CCRF-CEM
# [35] = test system: SF-295
# [36] = test system: IGROV-1
# [37] = test system: OVCAR-8
# [38] = test system: OVCAR-4
# [39] = test system: OVCAR-5
# [40] = test system: CAKI-1
# [41] = test system: HCT-15
# [42] = test system: M19-MEL
# [43] = test system: Malme-3M
# [44] = test system: DMS-114
# [45] = test system: RPMI-8226
# [46] = test system: A549
# [47] = test system: RXF 393
# [48] = test system: NCI/ADR-RES
# [49] = test system: KM12
# [50] = test system: SF-268
# [51] = test system: UACC-62
# [52] = test system: EKVX
# [53] = test system: UO-31
# [54] = test system: SR
# [55] = test system: BT-549
# [56] = test system: MDA-MB-435
# [57] = test system: 786-0
# [58] = test system: DU-145
# [59] = test system: LXFL 529
# [60] = test system: MDA-N
# [61] = test system: Hs-578T
# [62] = test system: MDA-MB-231
# [63] = test system: T47D
# [64] = test system: PC-3
# [65] = test system: ACHN
smiles,measurement,setting,value
C/C=C/c1cc2c(c(=O)o1)C(=O)[C@@H](O)[C@H](C)O2,GI50,[1],21.7 µM (inactive)
same,GI50,[2],4.32 µM (inactive)
same,GI50,[3],16.9 µM (inactive)
same,GI50,[4],17.7 µM (inactive)
same,GI50,[5],18.8 µM (inactive)
same,GI50,[6],4.08 µM (inactive)
same,GI50,[7],17 µM (inactive)
same,GI50,[8],7.8 µM (inactive)
same,GI50,[9],14.4 µM (inactive)
same,GI50,[10],19.5 µM (inactive)
same,GI50,[11],10.3 µM (inactive)
same,GI50,[12],15 µM (inactive)
same,GI50,[13],15 µM (inactive)
same,GI50,[14],18.7 µM (inactive)
same,GI50,[15],26.5 µM (inactive)
same,GI50,[16],15.4 µM (inactive)
same,GI50,[17],16.1 µM (inactive)
same,GI50,[18],12 µM (inactive)
same,GI50,[19],7.91 µM (inactive)
same,GI50,[20],18.8 µM (inactive)
same,GI50,[21],8.59 µM (inactive)
same,GI50,[22],16 µM (inactive)
same,GI50,[23],6.28 µM (inactive)
same,GI50,[24],12.6 µM (inactive)
same,GI50,[25],18.6 µM (inactive)
same,GI50,[26],16.9 µM (inactive)
same,GI50,[27],11 µM (inactive)
same,GI50,[28],14.4 µM (inactive)
same,GI50,[29],17.6 µM (inactive)
same,GI50,[30],11.4 µM (inactive)
same,GI50,[31],17.5 µM (inactive)
same,GI50,[32],9.71 µM (inactive)
same,GI50,[33],37.6 µM (inactive)
same,GI50,[34],5.46 µM (inactive)
same,GI50,[35],21 µM (inactive)
same,GI50,[36],8.32 µM (inactive)
same,GI50,[37],16.7 µM (inactive)
same,GI50,[38],15.4 µM (inactive)
same,GI50,[39],17.2 µM (inactive)
same,GI50,[40],17.3 µM (inactive)
same,GI50,[41],11.2 µM
same,GI50,[42],13.4 µM (inactive)
same,GI50,[43],17.3 µM (inactive)
same,GI50,[44],6.75 µM (inactive)
same,GI50,[45],4.09 µM (inactive)
same,GI50,[46],19.7 µM (inactive)
same,GI50,[47],12.3 µM (inactive)
same,GI50,[48],15.9 µM (inactive)
same,GI50,[49],14.4 µM (inactive)
same,GI50,[50],13 µM (inactive)
same,GI50,[51],17.5 µM (inactive)
same,GI50,[52],17.2 µM (inactive)
same,GI50,[53],19.7 µM (inactive)
CN(O)C(=O)SCC(NC(=O)CCC(N)C(=O)O)C(=O)NCC(=O)O (configuration not stated),GI50,[1],783 µM (inactive)
same,GI50,[2],318 µM (inactive)
same,GI50,[5],446 µM (inactive)
same,GI50,[9],1.31 µM (inactive)
same,GI50,[14],618 µM (inactive)
same,GI50,[15],173 µM (inactive)
same,GI50,[21],305 µM (inactive)
same,GI50,[22],1.52 µM (inactive)
same,GI50,[24],1.46 µM (inactive)
same,GI50,[26],294 µM (inactive)
same,GI50,[27],1760 µM (inactive)
same,GI50,[29],41.7 µM (inactive)
same,GI50,[31],619 µM (inactive)
same,GI50,[32],1100 µM (inactive)
same,GI50,[33],294 µM (inactive)
same,GI50,[34],1.67 µM (inactive)
same,GI50,[41],24.3 µM
same,GI50,[45],964 µM (inactive)
same,GI50,[47],518 µM (inactive)
same,GI50,[49],1050 µM (inactive)
same,GI50,[50],1630 µM (inactive)
COc1cc2c(cc1OC)[C@@H](Nc1ccc(C#N)cc1)C1COC(=O)[C@@H]1C2c1cc(OC)c(O)c(OC)c1 (some centres not stated),GI50,[1],< 0.00975 µM (active)
same,GI50,[2],< 0.00975 µM (active)
same,GI50,[3],0.01 µM (active)
same,GI50,[6],0.181 µM (active)
same,GI50,[9],1.87 µM (inactive)
same,GI50,[10],0.344 µM (active)
same,GI50,[54],< 0.00975 µM (active)
same,GI50,[14],0.328 µM (active)
same,GI50,[55],1.41 µM (inactive)
same,GI50,[16],0.192 µM (active)
same,GI50,[17],3.12 µM (inactive)
same,GI50,[56],6.73 µM (inactive)
same,GI50,[18],0.042 µM (active)
same,GI50,[20],5.79 µM (inactive)
same,GI50,[22],0.0403 µM (active)
same,GI50,[23],2.37 µM (inactive)
same,GI50,[24],0.214 µM (active)
same,GI50,[25],0.158 µM (active)
same,GI50,[27],0.948 µM (active)
same,GI50,[28],28.3 µM (inactive)
same,GI50,[30],2.13 µM (inactive)
same,GI50,[57],0.196 µM (active)
same,GI50,[58],0.149 µM (active)
same,GI50,[31],0.805 µM (active)
same,GI50,[32],< 0.00975 µM (active)
same,GI50,[59],22.4 µM (inactive)
same,GI50,[60],3.18 µM (inactive)
same,GI50,[35],0.108 µM (active)
same,GI50,[42],2.39 µM (inactive)
same,GI50,[61],1.55 µM (inactive)
same,GI50,[62],2.36 µM (inactive)
same,GI50,[63],0.167 µM (active)
same,GI50,[47],2.09 µM (inactive)
same,GI50,[48],40.2 µM (inactive)
same,GI50,[49],1.59 µM (inactive)
same,GI50,[64],> 100 µM (inactive)
same,GI50,[65],0.0279 µM (active)
same,GI50,[53],1.75 µM (inactive)
